Several values for one entry are separate records, joined by “and”; a condition that tells them apart may be missing. Equal entries are not always repeated.
System: Brassica plants comprising mutant AHAS alleles
Assay: Field trial, pre-planting treatment (0, 10, 20, 30 g a.i./ha), two locations in Canada: ERG, EST1, EST2, PPTOX, VIG1, VIG2, VIG3 scores
Format: in vivo, Brassica napus
Source text: Tests were set up and conducted to asses the growth and performance of plants comprising AHAS full knock-out alleles, and to further analyze the correlation between the presence of full knockout and missense AHAS genes in Brassica plants and plant growth and herbicide tolerance of the Brassica plants in the field. To this end, the Brassica plants identified in Example 1 and 2 were backcrossed two times with an elite parent line, and subsequently selfed twice to obtain homozygous plants (BC2S2). Plants were grown as row plots in a split plot design with three replicates (main plots=herbicide treatments, subplots=genotypes) at two locations in Canada. Treatment pre-planting was carried out on the soil about two days before sowing with a dose of 0 (treatment A), 10 (treatment B), 20 (treatment C) or 30 (treatment D) g a.i./ha of thiencarbazone methyl. Herbicide tolerance was measured by scoring for different parameters. The parameter emergence (ERG) was scored at the cotyledon stage on a scale 1-9, where 1 means late emergence and 9 means early emergence. Establishment was scored 14 days after sowing (EST1) and 21 days after sowing (EST2). Scores were from 1 to 9, where 1 is the worst establishment (least plants that emerged), and 9 is the best establishment (most plants emerged). Phytotoxicity (PPTOX) was determined after establishment. Plants were evaluated on a scale of 1 to 9, where 1=completely yellowing, 5=50% of plant is yellow and 9=no yellowing. The vigor scores (see above) were determined at 1-2 leaf stage (VIG1), 7 days after VIG1 (VIG2) and 14 days after VIG1 (VIG3). The average values (Av) and standard deviations (SD) of the scores for the different parameters are represented in Table 7a-g.
Further, the contribution of the knock-out allele to herbicide tolerance conferred by the missense allele was calculated. First, the scores were corrected for a possible effect of the growth per se, independent of herbicide treatment. To this end, the scores for treatments B, C and D were divided by the scores for treatment A for the same genotype and for the same parameter (corrected herbicide tolerance scores). Next, the effect of the knock-out allele to these corrected herbicide tolerance scores obtained by the missense allele was calculated. Therefore, the corrected herbicide tolerance scores for the missense—knock-out allele combination was divided by the corrected herbicide tolerance scores for the missense allele—wild-type combination. In case the knock-out allele has no effect on herbicide tolerance conferred by the missense allele, this ratio should be 1. In case the knock-out allele positively contributes to the herbicide tolerance conferred by the missense allele, this ratio should be higher than 1. The results for the contribution of the knock-out allele to herbicide tolerance conferred by the missense allele as calculated above are shown in table 8.

[1] = Location B, treatment D 30 g a.i./ha pre-planting, ratio >1 = positive contribution

COC(=O)c1csc(C)c1S(=O)(=O)NC(=O)n1nc(OC)n(C)c1=O [thiencarbazone-methyl, methyl 4-[(4,5-dihydro-3-methoxy-4-methyl-5-oxo-1H-1,2,4-triazol-1-yl)carbonylsulfamoyl]-5-methylthiophene-3-carboxylate]
relative contribution of HETO104 (AHAS3 KO) to herbicide tolerance conferred by HETO108 (AHAS1 missense): EST2 [1]: 0.95 | relative contribution of HETO104 (AHAS3 KO) to herbicide tolerance conferred by HETO108 (AHAS1 missense): PPTOX [1]: 1.44 | relative contribution of HETO104 (AHAS3 KO) to herbicide tolerance conferred by HETO108 (AHAS1 missense): VIG1 [1]: 1.40 | relative contribution of HETO104 (AHAS3 KO) to herbicide tolerance conferred by HETO108 (AHAS1 missense): VIG2 [1]: 1.38 | relative contribution of HETO104 (AHAS3 KO) to herbicide tolerance conferred by HETO108 (AHAS1 missense): VIG3 [1]: 1.34 | relative contribution of HETO112 (AHAS1 KO) to herbicide tolerance conferred by HETO111 (AHAS3 missense): ERG [1]: 0.88 | relative contribution of HETO112 (AHAS1 KO) to herbicide tolerance conferred by HETO111 (AHAS3 missense): EST1 [1]: 0.97 | relative contribution of HETO112 (AHAS1 KO) to herbicide tolerance conferred by HETO111 (AHAS3 missense): EST2 [1]: 0.92 | relative contribution of HETO112 (AHAS1 KO) to herbicide tolerance conferred by HETO111 (AHAS3 missense): PPTOX [1]: 0.76 | relative contribution of HETO112 (AHAS1 KO) to herbicide tolerance conferred by HETO111 (AHAS3 missense): VIG1 [1]: 0.75 | relative contribution of HETO112 (AHAS1 KO) to herbicide tolerance conferred by HETO111 (AHAS3 missense): VIG2 [1]: 1.07 | relative contribution of HETO112 (AHAS1 KO) to herbicide tolerance conferred by HETO111 (AHAS3 missense): VIG3 [1]: 1.11 | vigor3 (VIG3) score, Av (plants AHAS1 HETO108 / AHAS3 HETO104, 10 g a.i./ha (treatment B) pre-planting, Location A): 8.00 | vigor3 (VIG3) score, Av (plants AHAS1 HETO108 / AHAS3 HETO104, 10 g a.i./ha (treatment B) pre-planting, Location B): 5.33 | vigor3 (VIG3) score, Av (plants AHAS1 HETO108 / AHAS3 HETO104, 20 g a.i./ha (treatment C) pre-planting, Location A): 6.67 | vigor3 (VIG3) score, Av (plants AHAS1 HETO108 / AHAS3 HETO104, 20 g a.i./ha (treatment C) pre-planting, Location B): 6.67 | vigor3 (VIG3) score, Av (plants AHAS1 HETO108 / AHAS3 HETO104, 30 g a.i./ha (treatment D) pre-planting, Location A): 6.67 | vigor3 (VIG3) score, Av (plants AHAS1 HETO108 / AHAS3 HETO104, 30 g a.i./ha (treatment D) pre-planting, Location B): 6.00 | vigor3 (VIG3) score, Av (plants AHAS1 HETO108 / AHAS3 HETO111, 10 g a.i./ha (treatment B) pre-planting, Location A): 8.33 | vigor3 (VIG3) score, Av (plants AHAS1 HETO108 / AHAS3 HETO111, 10 g a.i./ha (treatment B) pre-planting, Location B): 7.67 | vigor3 (VIG3) score, Av (plants AHAS1 HETO108 / AHAS3 HETO111, 20 g a.i./ha (treatment C) pre-planting, Location A): 7.00 | vigor3 (VIG3) score, Av (plants AHAS1 HETO108 / AHAS3 HETO111, 20 g a.i./ha (treatment C) pre-planting, Location B): 6.67 | vigor3 (VIG3) score, Av (plants AHAS1 HETO108 / AHAS3 HETO111, 30 g a.i./ha (treatment D) pre-planting, Location A): 8.00 | vigor3 (VIG3) score, Av (plants AHAS1 HETO108 / AHAS3 HETO111, 30 g a.i./ha (treatment D) pre-planting, Location B): 4.33 | vigor3 (VIG3) score, Av (plants AHAS1 HETO108 / AHAS3 WT, 10 g a.i./ha (treatment B) pre-planting, Location A): 8.33 and 7.67 | vigor3 (VIG3) score, Av (plants AHAS1 HETO108 / AHAS3 WT, 10 g a.i./ha (treatment B) pre-planting, Location B): 5.33 and 6.00 | vigor3 (VIG3) score, Av (plants AHAS1 HETO108 / AHAS3 WT, 20 g a.i./ha (treatment C) pre-planting, Location A): 7.33 and 7.00 | vigor3 (VIG3) score, Av (plants AHAS1 HETO108 / AHAS3 WT, 20 g a.i./ha (treatment C) pre-planting, Location B): 6.33 and 8.00 | vigor3 (VIG3) score, Av (plants AHAS1 HETO108 / AHAS3 WT, 30 g a.i./ha (treatment D) pre-planting, Location A): 7.00 and 7.33 | vigor3 (VIG3) score, Av (plants AHAS1 HETO108 / AHAS3 WT, 30 g a.i./ha (treatment D) pre-planting, Location B): 5.33 | vigor3 (VIG3) score, Av (plants AHAS1 HETO112 / AHAS3 HETO111, 10 g a.i./ha (treatment B) pre-planting, Location A): 8.00 | vigor3 (VIG3) score, Av (plants AHAS1 HETO112 / AHAS3 HETO111, 10 g a.i./ha (treatment B) pre-planting, Location B): 7.33 | vigor3 (VIG3) score, Av (plants AHAS1 HETO112 / AHAS3 HETO111, 20 g a.i./ha (treatment C) pre-planting, Location A): 7.00 | vigor3 (VIG3) score, Av (plants AHAS1 HETO112 / AHAS3 HETO111, 20 g a.i./ha (treatment C) pre-planting, Location B): 5.67 | vigor3 (VIG3) score, Av (plants AHAS1 HETO112 / AHAS3 HETO111, 30 g a.i./ha (treatment D) pre-planting, Location A): 7.67 | vigor3 (VIG3) score, Av (plants AHAS1 HETO112 / AHAS3 HETO111, 30 g a.i./ha (treatment D) pre-planting, Location B): 5.67 | vigor3 (VIG3) score, Av (plants AHAS1 HETO112 / AHAS3 WT, 10 g a.i./ha (treatment B) pre-planting, Location A): 1.00 | vigor3 (VIG3) score, Av (plants AHAS1 HETO112 / AHAS3 WT, 10 g a.i./ha (treatment B) pre-planting, Location B): 1.00 | vigor3 (VIG3) score, Av (plants AHAS1 HETO112 / AHAS3 WT, 20 g a.i./ha (treatment C) pre-planting, Location A): 1.00 | vigor3 (VIG3) score, Av (plants AHAS1 HETO112 / AHAS3 WT, 20 g a.i./ha (treatment C) pre-planting, Location B): 1.00 | vigor3 (VIG3) score, Av (plants AHAS1 HETO112 / AHAS3 WT, 30 g a.i./ha (treatment D) pre-planting, Location A): 1.00 | vigor3 (VIG3) score, Av (plants AHAS1 HETO112 / AHAS3 WT, 30 g a.i./ha (treatment D) pre-planting, Location B): 1.00 | vigor3 (VIG3) score, Av (plants AHAS1 WT / AHAS3 HETO104, 10 g a.i./ha (treatment B) pre-planting, Location A): 1.00 | vigor3 (VIG3) score, Av (plants AHAS1 WT / AHAS3 HETO104, 10 g a.i./ha (treatment B) pre-planting, Location B): 1.00 | vigor3 (VIG3) score, Av (plants AHAS1 WT / AHAS3 HETO104, 20 g a.i./ha (treatment C) pre-planting, Location A): 1.00 | vigor3 (VIG3) score, Av (plants AHAS1 WT / AHAS3 HETO104, 20 g a.i./ha (treatment C) pre-planting, Location B): 1.00 | vigor3 (VIG3) score, Av (plants AHAS1 WT / AHAS3 HETO104, 30 g a.i./ha (treatment D) pre-planting, Location A): 1.00 | vigor3 (VIG3) score, Av (plants AHAS1 WT / AHAS3 HETO104, 30 g a.i./ha (treatment D) pre-planting, Location B): 1.00 | vigor3 (VIG3) score, Av (plants AHAS1 WT / AHAS3 HETO111, 10 g a.i./ha (treatment B) pre-planting, Location A): 7.67 and 7.00 | vigor3 (VIG3) score, Av (plants AHAS1 WT / AHAS3 HETO111, 10 g a.i./ha (treatment B) pre-planting, Location B): 7.33 | vigor3 (VIG3) score, Av (plants AHAS1 WT / AHAS3 HETO111, 20 g a.i./ha (treatment C) pre-planting, Location A): 6.67 | vigor3 (VIG3) score, Av (plants AHAS1 WT / AHAS3 HETO111, 20 g a.i./ha (treatment C) pre-planting, Location B): 6.00 | vigor3 (VIG3) score, Av (plants AHAS1 WT / AHAS3 HETO111, 30 g a.i./ha (treatment D) pre-planting, Location A): 6.67 and 6.33 | vigor3 (VIG3) score, Av (plants AHAS1 WT / AHAS3 HETO111, 30 g a.i./ha (treatment D) pre-planting, Location B): 4.67 and 5.33 | vigor3 (VIG3) score, Av (plants AHAS1 WT / AHAS3 WT, 10 g a.i./ha (treatment B) pre-planting, Location A): 1.00 | vigor3 (VIG3) score, Av (plants AHAS1 WT / AHAS3 WT, 10 g a.i./ha (treatment B) pre-planting, Location B): 1.33 | vigor3 (VIG3) score, Av (plants AHAS1 WT / AHAS3 WT, 20 g a.i./ha (treatment C) pre-planting, Location A): 1.00 | vigor3 (VIG3) score, Av (plants AHAS1 WT / AHAS3 WT, 20 g a.i./ha (treatment C) pre-planting, Location B): 1.00 | vigor3 (VIG3) score, Av (plants AHAS1 WT / AHAS3 WT, 30 g a.i./ha (treatment D) pre-planting, Location A): 1.00 | vigor3 (VIG3) score, Av (plants AHAS1 WT / AHAS3 WT, 30 g a.i./ha (treatment D) pre-planting, Location B): 1.00

Reference: patent US20120255051A1, “HERBICIDE TOLERANT PLANTS” (priority 2009, published 2012)
